US20240092800A1, “USP13 INHIBITORS AND METHODS OF USE THEREOF” (GEORGETOWN UNIVERSITY, priority 2021, published 2024)

Assays:
human USP13 = target: T1, human USP13 (Homo sapiens, UniProt Q92995); assay: USP13 activity via ELISA in SHSY5Y cells; type: cell-based
T1 construct: USP13 activity via ELISA in human SHSY5Y neuroblastoma cells; endogenous in cells; host or cells: human SH-SY5Y neuroblastoma cells (transiently transfected with human wild-type alpha-synuclein, not with USP13)
T1 sequence (Q92995 1-863): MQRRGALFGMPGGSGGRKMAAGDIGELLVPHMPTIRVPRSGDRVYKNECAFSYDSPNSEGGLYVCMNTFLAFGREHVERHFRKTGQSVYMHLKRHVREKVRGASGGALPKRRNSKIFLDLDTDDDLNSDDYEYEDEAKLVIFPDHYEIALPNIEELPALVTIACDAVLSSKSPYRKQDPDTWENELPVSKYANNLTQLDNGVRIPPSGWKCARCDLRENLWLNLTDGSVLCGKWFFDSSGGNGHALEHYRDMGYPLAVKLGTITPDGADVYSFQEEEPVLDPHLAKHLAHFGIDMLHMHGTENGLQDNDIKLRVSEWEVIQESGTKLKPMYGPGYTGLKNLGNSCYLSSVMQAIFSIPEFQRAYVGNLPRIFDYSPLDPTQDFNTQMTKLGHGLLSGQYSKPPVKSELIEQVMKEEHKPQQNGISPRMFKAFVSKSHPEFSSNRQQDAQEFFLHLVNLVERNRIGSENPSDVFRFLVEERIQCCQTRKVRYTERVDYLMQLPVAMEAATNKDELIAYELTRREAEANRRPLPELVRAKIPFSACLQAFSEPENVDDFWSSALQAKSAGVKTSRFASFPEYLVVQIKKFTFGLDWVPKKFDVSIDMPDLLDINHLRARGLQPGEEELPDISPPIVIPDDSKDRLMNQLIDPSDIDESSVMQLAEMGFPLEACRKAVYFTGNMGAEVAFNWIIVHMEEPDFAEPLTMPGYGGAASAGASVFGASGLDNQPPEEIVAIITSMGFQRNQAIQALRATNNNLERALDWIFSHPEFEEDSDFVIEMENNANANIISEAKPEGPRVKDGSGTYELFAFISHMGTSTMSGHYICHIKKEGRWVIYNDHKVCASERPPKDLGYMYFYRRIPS
Description: (§1) Cell lines, transfection, and treatment.
(§2) A total of 25 μL soluble protein was incubated overnight at 4° C. with 25 μL of a mixed bead solution. After washing, samples were incubated with 25 μL detection antibody solution for 1.5 hours at room temperature. Streptavidin-phycoerythrin (25 μL) was added to each well containing the 25 μL of detection antibody solution. Samples were then washed and suspended in 100 μL of sheath fluid. Samples were then run on MAGPIX with Xponent software. The median fluorescent intensity (MFI) data were analyzed using a 5-parameter logistic or spline curve-fitting method for calculating analyte concentrations in samples. Specific alpha-synuclein ELISAs were performed on tissue soluble extracts from midbrain lysates in 1XSTEN buffer. The ELISA for USP13 (MyBioSource, Cat # MBS9335287), Human alpha-synuclein (Biolegend, Cat #844101) and specific p-Tau ser396 (Invitrogen, KHB7031) were performed on cell or brain tissue extracts as described above according to manufacturers' protocol.
Statistical and Data Analysis. All statistical analyses were performed using GraphPad Prism version 5.0 (GraphPad software, Inc, San Diego, CA, USA). Two-tailed student's t-test was used in comparison of means of two groups. Ordinary one-way analysis of variance (ANOVA) followed by Newman-Keuls or Dunnett comparison post hoc tests were used in comparison of means of multiple groups. Asterisks denote actual p-value significances (*<0.05, **<0.01, ***<0.001 and ****<0.0001), and N is the number of animals or the number of independent experiments (cell culture) per group. Unless otherwise indicated, data are expressed as Mean±SD. IC50 to USP13 levels was also estimated using GraphPad Prism version 5.0 (GraphPad software, Inc, San Diego, CA, USA).

human alpha-synuclein = assay: Alpha-synuclein levels via ELISA in alpha-synuclein-transfected SHSY5Y cells; type: cell-based; settings: 5 hours, concentration between 1 and 0.1 nM
Description: as §1
Alpha-Synuclein Enzyme-Linked Immunosorbent Assay (ELISA). ELISAs for total human alpha-synuclein (Millipore; Burlington, MA) were conducted using Milliplexed ELISA. Briefly, Xmap technology uses magnetic microspheres that are internally coded with two fluorescent dyes. Through precise combinations of these two dyes, multiple proteins are simultaneously measured within a sample. Each of these spheres is coated with a specific capture antibody. The capture antibody binds to the detection antibody and a reporter molecule, completing the reaction on the surface of the bead.
as §2

[1] = test system: alpha-synuclein ubiquitination; assay: Alpha-synuclein ubiquitination in TgA53T mice (IP/WB, immunostaining co-localization); type: in vivo, mouse; settings: midbrain extracts, 40 mg/kg compared to DMSO and 10 mg/kg
Description: Immunoprecipitation (IP). Mouse brain tissues were homogenized in 1×STEN buffer, and the soluble fraction was isolated as indicated above. The lysates were pre-cleaned with immobilized recombinant protein A/G agarose (Santa Crutz, sc-2003, Dallas, TX, USA) and centrifuged at 2500×g for 1 min at 4° C. The supernatant was recovered and quantified by protein assay, and a total of 300 μg protein was incubated overnight at 4° C. with primary anti-alpha-synuclein (1:200, Thermofisher, AHB0261) mouse antibodies or anti-ubiquitin (1:100) (Thermo Fisher, PA3-16717, Rockford, IL, USA) antibodies in the presence of sepharose G and an IgG control with primary antibodies. The immunoprecipitates were collected by centrifugation at 2500×g for 3 min at 4° C., washed 5× in PBS, with spins of 3 min, 2500×g using detergent-free buffer for the last washing step, and the proteins were eluted according to Pierce instructions (Pierce #20365, Rockford, IL, USA). […]
Immunohistochemistry was performed on the 20 μm thick brain sections for evaluation of ubiquitination of alpha-synuclein. […] The optic densitometry of co-localization of ubiquitin with alpha-synuclein was measured using Image J. Tyrosine hydroxylase (TH) is the limiting enzyme in DA synthesis, so probing for TH+ neurons will help to evaluate the status of DA producing neurons in the SN and their terminals in the striatum. […]

Fc1ccc2nccc(OCc3ccccc3)c2c1 [4-(Benzyloxy)-6-fluoroquinoline]
IC50 (human USP13; SHSY5Y cell line, estimated with GraphPad Prism, read-out: IC50 to inhibit USP13 activity): 78 nM
USP13 activity via ELISA (human USP13; SHSY5Y cells, 5 hours, concentration range of 1 nM-1 mM): significantly reduce the activity of human USP13
level of alpha-synuclein via ELISA (human alpha-synuclein): significantly reduce the level of alpha-synuclein
alpha-synuclein ubiquitination by immunoprecipitation and WB [1]: increased ubiquitination
